{
  "source": "patent US10525220B2",
  "about": "“Droplet delivery device for delivery of fluids to the pulmonary system and methods of use” (PNEUMA RESPIRATORY, INC., priority 2016, dated 2020)",
  "assay_type_in_all_cases": "physicochemical",
  "key": {"[1]": {"test": "Anderson Cascade Impactor testing of Albuterol sulfate aerosol from droplet delivery device (Example B)", "protocol": "The study was designed to evaluate device performance of a single Pneuma™ inhaler. A series of three (3) individual tests were conducted with a new disposable drug cartridge for each test. The testing platform utilizes an eight-stage nonviable Anderson Cascade Impactor (Thermo Fisher Scientific; Waltham, Mass.) equipped with a calibrated AALBORG model GFM47 mass flow meter (AALBORG Instruments and Controls; Orangeburg, N.Y.) for flow rate measurement.\nAt the conclusion of each test, the mouthpiece was rinsed with mobile phase and collected for HPLC analysis to determine the mass fraction of non-respirable aerosolized drug captured in the mouthpiece via inertial filtering. Following each test, impactor stage samples were extracted and recovered in solvent and analyzed for the active pharmaceutical ingredient (API) using a Dionex Ultimate 3000 nano-HPLC with UV detection (Thermo Scientific, Sunnyvale, Calif.).\nThe cascade impactor testing procedure involved fitting the mouthpiece into the Impactor USP throat with a mouthpiece connection seal. The vacuum pump supplying sample air flow to the cascade impactor was turned on and the pump control valves adjusted to supply 28.3 L/min total flow through the impactor and inhaler body during aerosol tests.\nThe device was connected to the impactor USB throat, turned on, and actuated ten (10) times for each test. At the conclusion of the test period, the device, impactor, and dilution air sources were turned off. The i mouthpiece was rinsed in order to extract drug, and all stages of the cascade impactor were rinsed with a quantity of appropriate solvent (HPLC mobile phase). Extracted samples were placed in labeled and sterile HPLC vials, capped, and analyzed for drug content via HPLC with UV detection. The mouthpiece was extracted of residual drug and analyzed for drug content via HPLC to measure mouthpiece drug deposition in relation to the total collected on the impactor stages.\nAll system flow rates and impactor sample flows were monitored throughout each test period. Following each test, the impactor slides were placed in labeled sterile Petri dishes, and impactor stages were extracted of drug using 2 ml of mobile phase applied with a calibrated micropipette. All extracted samples from the mouthpiece and impactor were placed in labeled sterile amber HPLC sample vials, and stored refrigerated at approximately 2° C. until HPLC analysis.\nImpactor collection stages for all tests were rinsed with DI water and ethanol, and air dried prior to each inhaler test trial to avoid contamination. A new inhaler drug cartridge was used for each of the three individual tests.\nAll drug content analysis was performed using a Dionex Ultimate 3000 nano-HPLC equipped with a Dionex UVD-3000 multi-wavelength UVNIS Detector using a micro flow cell (75 um×10 mm path length, total analytical volume 44.2 nl). […] Total HPLC run time was 6 minutes per sample with approximately 5 minutes flush between each sample. Sample injection was performed with a 1 μl sample loop in full loop injection mode.\nBuffer formulation contains reverseosmosis filtered deionized water with 1.13 gr of sodium 1-hexanesulfonate (Alfa Aesar) in 1200 ml of water, with 2 ml glacial acetic acid (Acros Organics) added. The mobile phase solution was mixed and filtered through a 0.45 um filter membrane. The final mobile phase is a 60:40 dilution of Buffer:MEOH.\nMean and standard deviation were calculated for all triplicate trial sets for each component of: inhaler drug fill, total delivered dose, course particle dose, course particle fraction, respirable particle dose, respirable particle fraction, fine particle dose, fine particle fraction, aerosol MMAD and GSD. The number of trials provided for 95% confidence levels for all data sets."}, "[2]": {"test": "Size exclusion chromatography stability study after aerosol generation with test device", "text": "Alternately, to determine the stability of active agent after droplet generation, the generated stream of droplets including the active agent may be collected and […] may be employed to monitor for any changes in large molecule aggregation and protein fragment content. Soluble protein aggregates and protein fragment content may be calculated by comparing respective peak area under the SEC-HPLC curve of dispensed protein solutions with controls (solutions remaining in the device reservoir). Drug solutions for testing include Enbrel, (ENBREL® single-use prefilled syringes in 25 mg (0.51 mL of a 50 mg/mL solution of etanercept), and insulin, (Humalog, 200 units/ml, 3 ml […] is performed with a YarraTM 3 um SEC-2000 LC column 300×7.8 mm, SecurityGuard cartridge kit and SecurityGuard cartridges GFC-2000, 4×3 mm ID. Fifty microliters of Enbrel from the syringe (ENBREL® single-use prefilled syringes in 25 mg/0.51 mL of a 50 mg/mL solution of etanercept) is diluted (4:1) (4 parts, 200 mcl of the mobile phase buffer solution to 1 part, 50 mcl Enbrel from syringe). Fifty microliter of the diluted Enbrel is injected and separation was performed at a flow rate of 1.0 ml/min. The mobile phase buffer system included a PHOS. BUFF. SALINE. […] UV detection is performed at 280 nm. […] Aerosol collection and SEC is performed in a similar fashion as for the Enbrel analysis and aerosol collection. […] Fifty microliters of the collected aerosol spray is injected onto the SEC column for analysis, while 50 mcl of the […] insulin solution is injected onto the SEC column for control samples."}, "[3]": {"test": "Gravimetric analysis of delivered dose per actuation", "settings": "for solution mass per dose (actuation), average of five doses: ampule weighed before and after dosing", "description": "Gravimetric analysis was performed by weighing the Enbrel solution filled ampule before and after dosing. The average of five doses (actuations) were analyzed with an average of 4.25 mg+/−0.15 mg. The total delivered dose of Enbrel per actuation is therefore […] per actuation.\nGravimetric analysis was performed by weighing the Insulin solution filled ampule before and after dosing. The average of five doses (actuations) were analyzed with an average of 5.01 mg+/−0.53 mg. The total delivered dose of Insulin per actuation is therefore 34.8 mcg per actuation."}, "[4]": {"test": "Gel electrophoresis stability of active agent after droplet generation", "text": "To determine the stability of active agent after droplet generation, the generated stream of droplets including the active agent is collected and the molecular weight of the active agent is verified using gel electrophoresis."}, "[5]": {"settings": "Albuterol 0.5%, 28.3 lpm, 10 actuations"}, "[6]": {"settings": "Albuterol 0.5%, 28.3 lpm, N = 30"}, "[7]": {"settings": "Albuterol 0.5%, Anderson Cascade, 28.3 lpm, 10 actuations"}, "[8]": {"settings": "Pre-separator, cut diam. 10 μm, Albuterol 0.5%, 28.3 lpm, 10 actuations"}, "[9]": {"settings": "Enbrel aerosolized, average of S1 and S2"}},
  "note": "“And” between values parts separate entries of the source, which are not always exact repeats. Equal entries are not always repeated.",
  "data": [
    {"substance": "Albuterol sulfate", "values": [
      {"measurement": "Coarse Particles (>4.7 um)", "setting": "[1]; [5]", "value": 203.7, "unit": "µg"},
      {"measurement": "Coarse Particules Fraction (>4.7 um)", "setting": "[1]; [5]", "value": 22.7, "unit": "%"},
      {"measurement": "Fine Particles (<0.4 um)", "setting": "[1]; [5]", "value": 31.0, "unit": "µg"},
      {"measurement": "Fine Particule Fraction (<0.4 um)", "setting": "[1]; [5]", "value": 3.5, "unit": "%"},
      {"measurement": "Mouthpiece Losses", "setting": "[1]; [5]", "value": 12.2, "unit": "%"},
      {"measurement": "Respirable Dose (0.4-4.7 um)", "setting": "[1]; [5]", "value": 621.9, "unit": "µg"},
      {"measurement": "Respirable Fraction (0.4-4.7 um)", "setting": "[1]; [5]", "value": 69.3, "unit": "%"},
      {"measurement": "Geometric StdDev (GSD)", "setting": "[1]; [6]", "value": 1.96},
      {"measurement": "MMAD", "setting": "[1]; [6]", "value": 1.93, "unit": "um"},
      {"measurement": "Mouthpiece Losses", "setting": "[1]; [7]", "value": 109.4, "unit": "µg"},
      {"measurement": "droplets of an average diameter of less than about 5 μm", "setting": "[1]; [7]", "value": "over 75%"},
      {"measurement": "droplets with an average diameter of less than about 4 μm", "setting": "[1]; [7]", "value": "over 70%"},
      {"measurement": "Cum. % <", "setting": "[1]; FILTER stage", "value": 0.00, "unit": "%"},
      {"measurement": "Cum. % >", "setting": "[1]; FILTER stage", "value": 100.00, "unit": "%"},
      {"measurement": "Cum. % <", "setting": "[1]; [8]", "value": 100.00, "unit": "%"},
      {"measurement": "Cum. % >", "setting": "[1]; [8]", "value": 0.00, "unit": "%"},
      {"measurement": "Cum. % <", "setting": "[1]; stage 0, cut diam. 9 μm", "value": 88.95, "unit": "%"},
      {"measurement": "Cum. % <", "setting": "[1]; stage 1, cut diam. 5.8 μm", "value": 76.22, "unit": "%"},
      {"measurement": "Cum. % >", "setting": "[1]; stage 1, cut diam. 5.8 μm", "value": 23.78, "unit": "%"},
      {"measurement": "Cum. % <", "setting": "[1]; stage 2, cut diam. 4.7 μm", "value": 71.05, "unit": "%"},
      {"measurement": "Cum. % >", "setting": "[1]; stage 2, cut diam. 4.7 μm", "value": 28.95, "unit": "%"},
      {"measurement": "Cum. % <", "setting": "[1]; stage 3, cut diam. 3.3 μm", "value": 64.29, "unit": "%"},
      {"measurement": "Cum. % >", "setting": "[1]; stage 3, cut diam. 3.3 μm", "value": 35.71, "unit": "%"},
      {"measurement": "Cum. % <", "setting": "[1]; stage 4, cut diam. 2.1 μm", "value": 52.89, "unit": "%"},
      {"measurement": "Cum. % >", "setting": "[1]; stage 4, cut diam. 2.1 μm", "value": 47.11, "unit": "%"},
      {"measurement": "Cum. % <", "setting": "[1]; stage 5, cut diam. 1.1 μm", "value": 21.05, "unit": "%"},
      {"measurement": "Cum. % >", "setting": "[1]; stage 5, cut diam. 1.1 μm", "value": 78.95, "unit": "%"},
      {"measurement": "Cum. % <", "setting": "[1]; stage 6, cut diam. 0.7 μm", "value": 8.47, "unit": "%"},
      {"measurement": "Cum. % >", "setting": "[1]; stage 6, cut diam. 0.7 μm", "value": 91.53, "unit": "%"},
      {"measurement": "Cum. % >", "setting": "[1]; stage 7, cut diam. 0.4 μm", "value": 96.38, "unit": "%"}
    ]},
    {"substance": "Insulin: insulin, Humalog, 200 units/ml, 3 ml kwikpens", "values": [
      {"measurement": "Peak Area %, Peak 1", "setting": "[2]; Insulin 200 U/ml, aerosolized", "value": "27.881% and 28.721%"},
      {"measurement": "Peak Area %, Peak 2", "setting": "[2]; Insulin 200 U/ml, aerosolized", "value": "69.780% and 67.807%"},
      {"measurement": "Peak Area %, Peak 3", "setting": "[2]; Insulin 200 U/ml, aerosolized", "value": "2.184% and 2.797%"},
      {"measurement": "Peak Area %, Peak 2", "setting": "[2]; Insulin 200 U/ml, control", "value": 69.630, "unit": "%"},
      {"measurement": "Peak Area %, Peak 3", "setting": "[2]; Insulin 200 U/ml, control", "value": 0, "unit": "%"},
      {"measurement": "Peak 3, Avg.", "setting": "[2]; Insulin aerosolized, average of S1 and S2", "value": 2.4905},
      {"measurement": "Peak Area %, Peak 1", "setting": "[2]; Insulin from Kwikpen 200 U/ml, control", "value": 29.926, "unit": "%"},
      {"measurement": "ejected dose forming a fragment which elutes at ~25 minutes", "setting": "[2]; Insulin, test device", "value": 2.5, "unit": "%"},
      {"measurement": "ejected dose structurally unchanged", "setting": "[2]; Insulin, test device", "value": 97.5, "unit": "%"},
      {"measurement": "total delivered dose per actuation", "setting": "[3]", "value": 34.8, "unit": "mcg per actuation"},
      {"measurement": "solution mass per dose (actuation), average of five doses", "setting": "[3]", "value": 5.01, "unit": "mg"}
    ]},
    {"substance": "adalimumab", "values": [
      {"measurement": "change in electrophoretic mobility (molecular weight) of post-aerosol active agent vs control", "setting": "[4]", "value": "negligible change"}
    ]},
    {"substance": "etanercept [Enbrel]", "values": [
      {"measurement": "change in electrophoretic mobility (molecular weight) of post-aerosol active agent vs control", "setting": "[4]", "value": "negligible change"},
      {"measurement": "Peak Area %, Peak 2", "setting": "[2]; Enbrel 10 mg/ml, aerosolized", "value": "90.789% and 92.112%"},
      {"measurement": "Peak Area %, Peak 3", "setting": "[2]; Enbrel 10 mg/ml, aerosolized", "value": "0.424% and 0.361%"},
      {"measurement": "Peak Area %, Peak 4", "setting": "[2]; Enbrel 10 mg/ml, aerosolized", "value": "0.357% and 0.352%"},
      {"measurement": "Peak Area %, Peak 5", "setting": "[2]; Enbrel 10 mg/ml, aerosolized", "value": "5.130% and 3.428% and 5.123%"},
      {"measurement": "Peak Area %, Peak 1", "setting": "[2]; Enbrel 10 mg/ml, aerosolized with test device", "value": "2.796% and 3.476%"},
      {"measurement": "Peak Area %, Peak 2", "setting": "[2]; Enbrel 10 mg/ml, control", "value": "96.676% and 95.909%"},
      {"measurement": "Peak Area %, Peak 3", "setting": "[2]; Enbrel 10 mg/ml, control", "value": "0.373% and 0.351%"},
      {"measurement": "Peak Area %, Peak 4", "setting": "[2]; Enbrel 10 mg/ml, control", "value": 0, "unit": "%"},
      {"measurement": "Peak Area %, Peak 5", "setting": "[2]; Enbrel 10 mg/ml, control", "value": 0, "unit": "%"},
      {"measurement": "Peak 4, Avg.", "setting": "[2]; [9]", "value": 0.3545},
      {"measurement": "Peak 5, Avg.", "setting": "[2]; [9]", "value": 4.2755},
      {"measurement": "Peak Area %, Peak 1", "setting": "[2]; Enbrel diluted 4:1 (10 mg/ml), control", "value": "2.428% and 3.041%"},
      {"measurement": "dose forming molecular fragments with elution times of 13 and 25 minutes", "setting": "[2]; Enbrel, test device", "value": 4.6, "unit": "%"},
      {"measurement": "structurally unchanged after delivering an aerosol dose", "setting": "[2]; Enbrel, test device", "value": 95.4, "unit": "%"},
      {"measurement": "total delivered dose per actuation", "setting": "[3]", "value": 42.5, "unit": "mcg per actuation"},
      {"measurement": "solution mass per dose (actuation), average of five doses", "setting": "[3]", "value": 4.25, "unit": "mg"}
    ]}
  ]
}
